Laboratory results reported in patent US12171755B2, “PAPD5 inhibitors and methods of use thereof” (Children's Medical Center Corporation, priority 2017, dated 2024).

Molecular target: T1, PAPD5 (Homo sapiens, UniProt Q8NDF8)
T1 construct: made in house
Test: High-throughput luminescence (KinaseGlo) RNA polyadenylation assay, ATP utilization by recombinant PAPD5
Assay type: biochemical
Conditions: Table 4 (entries of Table 5), ratio of luminescence with inhibitor to DMSO; for Fold-change determined at compound concentration 33 μM: 33 μM compound; for Fold-change determined at compound concentration 100 μM: 100 μM compound, higher = higher inhibition
Experimental: Optimal conditions for an in vitro RNA polyadenylation assay using recombinant PAPD5, ATP and an oligonucleotide substrate were identified. The HTS assay involved ATP utilization by PAPD5, which reads out as a decreased luminescence signal produced by luciferase (KinaseGlo, Promega, Madison, WI).
100 nl of compound dissolved in DMSO was transferred to each well of the assay plate via pin transfer. For negative control wells, DMSO alone was added. Plates were gently vortexed for 5 seconds, then incubated for 2 hours at room temperature.
After 2 hours, 5 ul of luciferase (Promega KinaseGlo, Madison, WI) was added using a MultiDrop Combi (Thermo Fisher Scientific, Waltham, MA). The mixture was gently vortexed for 5 seconds and incubated for 10 minutes at room temperature. Plates were spun for 1 minute prior to luminescence measurements. Luminescent measurements were quantitated using a PerkinElmer EnVision™ plate reader.
˜100,000 compounds from various libraries at the ICCB-Longwood were screened in this manner in duplicate.
The fold change was the ratio of luminescence from a sample with inhibitor compared to that with DMSO. Thus, a higher number indicates higher inhibition.

T1 sequence (Q8NDF8 68-698 isoform Q8NDF8-5): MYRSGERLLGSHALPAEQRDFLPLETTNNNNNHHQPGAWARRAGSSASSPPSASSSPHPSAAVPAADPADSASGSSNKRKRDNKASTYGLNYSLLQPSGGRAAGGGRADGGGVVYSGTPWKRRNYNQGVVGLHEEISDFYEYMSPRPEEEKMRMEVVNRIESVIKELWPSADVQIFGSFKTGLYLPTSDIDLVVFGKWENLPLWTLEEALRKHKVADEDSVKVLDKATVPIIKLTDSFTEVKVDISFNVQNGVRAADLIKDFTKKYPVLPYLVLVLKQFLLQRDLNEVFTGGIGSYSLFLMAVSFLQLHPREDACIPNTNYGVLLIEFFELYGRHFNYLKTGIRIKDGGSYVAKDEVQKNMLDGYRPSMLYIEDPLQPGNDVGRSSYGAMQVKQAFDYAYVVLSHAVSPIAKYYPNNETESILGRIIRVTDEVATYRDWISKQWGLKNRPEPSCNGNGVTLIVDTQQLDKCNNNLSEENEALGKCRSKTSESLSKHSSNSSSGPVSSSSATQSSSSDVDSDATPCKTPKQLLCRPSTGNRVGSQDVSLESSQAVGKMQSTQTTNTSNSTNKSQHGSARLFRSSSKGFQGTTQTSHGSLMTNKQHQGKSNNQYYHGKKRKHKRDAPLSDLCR

Structure (SMILES)	Fold-change determined at compound concentration 33 μM	Fold-change determined at compound concentration 100 μM
O=C(O)C1CCCN(c2nc3c(-c4ccccc4)csc3c(=O)[nH]2)C1 (stereo not shown) [Entry 39, 1-(4-oxo-7-phenyl-3,4-dihydrothieno[3,2-d]pyrimidin-2-yl)piperidine-3-carboxylic acid]	1.19	1.527
O=c1nc(SCc2ccc(F)cc2)[nH]c2nc[nH]c12 [Entry 162, 2-[(4-fluorophenyl)methylsulfanyl]-3,7-dihydropurin-6-one]	1.153	1.431
COCCNC(=O)Cn1cc2c(n1)-c1c(oc(C(=O)N3CCCC3)c1C)CC2 [Entry 171, N-(2-methoxyethyl)-2-[8-methyl-7-(pyrrolidine-1-carbonyl)-4,5-dihydrofuro[2,3-g]indazol-2-yl]acetamide]	1.374	1.777
c1cc(CNc2nc(C3CC3)nc3c2CCC3)ccn1 [Entry 45, N-(2-cyclopropyl-6,7-dihydro-5H-cyclopenta[d]pyrimidin-4-yl)-N-(4-pyridylmethyl)amine]	1.429	1.936
Cn1nc(-c2ccc(Cl)cc2)c2cc(C(=O)O)sc21 [Entry 205, 3-(4-chlorophenyl)-1-methylthieno[2,3-c]pyrazole-5-carboxylic acid]	1.232	2.055
COC(=O)c1c(NC(=O)c2ccccc2C(=O)O)sc2c1CCCC2 [Entry 199, 2-({[3-(methoxycarbonyl)-4,5,6,7-tetrahydro-1-benzothien-2-yl]amino}carbonyl)benzoic acid]	1.199	1.607
CC1=C2C(=NC(=O)CC2c2ccc(O)cc2)N(c2ccc3nncn3n2)N1 (stereo not shown) [Entry 147, 4-(4-hydroxyphenyl)-3-methyl-1-([1,2,4]triazolo[4,3-b]pyridazin-6-yl)-4,5-dihydro-2H-pyrazolo[3,4-b]pyridin-6-one]	1.118	1.243
COC(=O)c1cnn2c(=O)cc(CS(=O)(=O)c3ccc(C)cc3C)[nH]c12 [Entry 188, Methyl 5-{[(2,4-dimethylphenyl)sulfonyl]methyl}-7-oxo-4,7-dihydropyrazolo[1,5-a]pyrimidine-3-carboxylate]	1.089	1.29
Cc1ccc(-c2nnc(Nc3ccc(OCC(N)=O)cc3)c3ccccc23)cc1S(=O)(=O)N(C)C [Entry 54, 2-[4-({4-[3-(dimethylsulfamoyl)-4-methylphenyl]phthalazin-1-yl}amino)phenoxy]acetamide]	1.324	1.562
O=C(Cn1nc(Cc2ccncc2)c2ccccc2c1=O)N1CC=C(c2ccccc2)CC1 [Entry 209, 2-[2-oxo-2-(4-phenyl-3,6-dihydropyridin-1(2H)-yl)ethyl]-4-(pyridin-4-ylmethyl)phthalazin-1(2H)-one]	1.093	1.274
CC(C)c1nnc2ccc(N3CCN(C)CC3)nn12 [Entry 50, 3-isopropyl-6-(4-methylpiperazino)[1,2,4]triazolo[4,3-b]pyridazine]	1.336	2.083
Cc1ccc(Cl)cc1NC(=O)c1oc2c(c1C)-c1[nH]ncc1CC2 [Entry 174, N-(5-chloro-2-methylphenyl)-8-methyl-4,5-dihydro-1H-furo[2,3-g]indazole-7-carboxamide]	1.278	1.87
COc1ccc(Nc2ncnc3sc(C(=O)O)c(C)c23)cc1OC [Entry 40, 4-(3,4-dimethoxyanilino)-5-methylthieno[2,3-d]pyrimidine-6-carboxylic acid]	1.589	2.956
O=C(O)c1csc2nc[nH]c(=O)c12 [Entry 210, 4-Oxo-3,4-dihydrothieno[2,3-d]pyrimidine-5-carboxylic acid]	1.136	1.311
CC(C)Cn1cc(NC(=O)NCc2ccc(Cl)cc2)c2ccccc2c1=O [Entry 58, 1-[(4-chlorophenyl)methyl]-3-[2-(2-methylpropyl)-1-oxoisoquinolin-4-yl]urea]	1.076	1.364
Cc1ccc(-c2n[nH]c(=O)c3c2CCCC3)cc1S(=O)(=O)Nc1ccc(S(N)(=O)=O)cc1 [Entry 208, N-[4-(aminosulfonyl)phenyl]-2-methyl-5-(4-oxo-3,4,5,6,7,8-hexahydrophthalazin-1-yl)benzenesulfonamide]	1.211	1.492
O=C(O)c1cccn2c(=O)c3c4c(sc3nc12)CCCC4 [Entry 215, 12-oxo-1,2,3,4-tetrahydro-12H-[1]benzothieno[2,3-d]pyrido[1,2-a]pyrimidine-7-carboxylic acid]	1.074	2.037
CCc1ccccc1NC(=O)Cc1c(C(=O)O)[nH]c2ccc(Cl)cc12 [Entry 110, 5-chloro-3-[2-(2-ethylanilino)-2-oxoethyl]-1H-indole-2-carboxylic acid]	1.126	1.298
CCn1c(=S)sc2c(=O)n3[nH]c(=O)c4ccccc4c3nc21 [Entry 231, 11-ethyl-10-thioxo-10,11-dihydro-6H-[1,3]thiazolo[4′,5′:4,5]pyrimido[2,1-a]phthalazine-5,8-dione]	1.068	1.36
CCn1cnc2c(=O)oc3ccc(S(=O)(=O)Nc4ccc(OC)cc4)cc3c21 [Entry 119, 1-ethyl-N-(4-methoxyphenyl)-4-oxochromeno[3,4-d]imidazole-8-sulfonamide]	1.319	1.366
Cc1nc(-c2cnccn2)nc2c1CC(=O)N2CC1CCCO1 (stereo not shown) [Entry 230, 4-methyl-2-(2-pyrazinyl)-7-(tetrahydro-2-furanylmethyl)-5,7-dihydro-6H-pyrrolo[2,3-d]pyrimidin-6-one]	1.053	1.527
Cc1ccc(-c2cn3c(n2)sc2ccc(C(=O)NCCCN4CCCCCC4)cc23)cc1 [Entry 187, N-[3-(azepan-1-yl)propyl]-2-(4-methylphenyl)imidazo[2,1-b][1,3]benzothiazole-6-carboxamide]	1.108	1.262
Cn1c(=O)c2nc(SCCC(=O)O)n(Cc3ccccc3)c2n(C)c1=O [Entry 82, 3-(9-benzyl-1,3-dimethyl-2,6-dioxopurin-8-yl)sulfanylpropanoic acid]	1.122	1.306
